Assay in all cases: Herbicidal activity, pot culture method (primary and secondary screening test)
What all share (assay type): in vivo
Holding throughout (settings): primary screening, pot culture, 150 g/ha, sprayed at 3-leaf stage, result 15 days later

In test [1] the test system is digitaria sanguinalis. The text has this: (§1) This test example is for describing the herbicidal activity inhibition ratio (%) (the dose is 150 g/ha) of the compound with a structure shown in Formula (I). Primary screening test (pot culture method): The test targets are abutilon theophrasti, digitaria sanguinalis, amaranthus retroflexus, echinochloa crusgalli, eclipta prostrata and setaria viridis. Take flowerpots with an inner diameter of 6 cm, put composite soil (vegetable garden soil:seedling matrix=1:2, v/v) into them till 3⁄4 of flowerpot height, directly sow the above six weed targets (budding rate>85%), cover them with 0.2 cm thick soil, and keep them for future use when the weeds grow to 3-leaf stage. Each compound is dissolved in N,N-dimethylformamide at a dose of 150 g/ha and diluted with distilled water into a 0.2 g/L solution. The solution is sprayed through an automatic spray tower. After the solution on weed leaves is aired dry, the flowerpots are moved into a greenhouse for cultivation. The result is investigated 15 days later. By the same method adopted in primary screening test, a secondary screening test is done on some typical compounds, such as: 5, 6, 20, 21, 23, 34, 47, 65, 66, 70 and 91 at a reduced dose, and the test result is compared with mesotrione which is commercially available and has a good herbicidal effect. The test method is same as that adopted in primary screening test. Mesotrione is bought from Hubei […] Chemical Co., Ltd.

Test [2] concerns echinochloa crusgalli.
From the text: as §1

The subject of test [3] is eclipta prostrata.
From the text: as §1

In test [4] the test system is abutilon theophrasti.
From the text: as §1

The subject of test [5] is setaria viridis.
From the text: as §1

The subject of test [6] is amaranthus retroflexus.
From the text: as §1

The results in this text go back to patent publication US9771334B2, “Triketone compound and preparation method and use thereof” (SHANDONG CYNDA CHEMICAL CO., LTD., priority 2013, dated 2017).

In the case of `Cc1cccc(-n2c(=O)c3cc(C(=O)C4=C(O)CC(C)(C)CC4=O)ccc3n(C)c2=O)c1` [Compound 18], the “herbicidal activity inhibition ratio (%), Digitaria sanguinalis” value in test [1] is listed as 90%. For the same molecule, the “herbicidal activity inhibition ratio (%), Echinochloa crusgalli” value in test [2] stood at 70%. The “herbicidal activity inhibition ratio (%), Eclipta prostrata” value in test [3] worked out at 75%. Moreover, the “herbicidal activity inhibition ratio (%), Abutilon theophrasti” value in test [4] was found to be 75%. Also, the “herbicidal activity inhibition ratio (%), Setaria viridis” value in test [5] is given as 85%. In test [6], the “herbicidal activity inhibition ratio (%), Amaranthus retroflexus” value is recorded as 100%.
Regarding `COc1ccc(-n2c(=O)c3cc(C(=O)C4=C(O)CCCC4=O)ccc3n(C)c2=O)cc1` [Compound 57], the “herbicidal activity inhibition ratio (%), Digitaria sanguinalis” value in test [1] was determined as 75%. Further, in test [2], the “herbicidal activity inhibition ratio (%), Echinochloa crusgalli” value was found to be 85%. Further, the “herbicidal activity inhibition ratio (%), Eclipta prostrata” value in test [3] worked out at 80%. For the same molecule, in test [4], the “herbicidal activity inhibition ratio (%), Abutilon theophrasti” value is 60%. For the same molecule, the “herbicidal activity inhibition ratio (%), Setaria viridis” value in test [5] was found to be 50%. For the same molecule, the “herbicidal activity inhibition ratio (%), Amaranthus retroflexus” value in test [6] is 95%.
Turning to `Cn1c(=O)n(-c2ccc(C(F)(F)F)cc2)c(=O)c2cc(C(=O)C3=C(O)CCCC3=O)ccc21` [Compound 30], the “herbicidal activity inhibition ratio (%), Digitaria sanguinalis” value in test [1] is 60%. Besides, the “herbicidal activity inhibition ratio (%), Echinochloa crusgalli” value in test [2] is recorded as 85%. Also, in test [3], the “herbicidal activity inhibition ratio (%), Eclipta prostrata” value is recorded as 60%. For the same molecule, the “herbicidal activity inhibition ratio (%), Abutilon theophrasti” value in test [4] is on record as 100%. Besides, the “herbicidal activity inhibition ratio (%), Setaria viridis” value in test [5] is listed as 30%. In addition, in test [6], the “herbicidal activity inhibition ratio (%), Amaranthus retroflexus” value came out at 100%.
With `Cc1cccc(-n2c(=O)c3cc(C(=O)C4=C(O)CC(C)CC4=O)ccc3n(C)c2=O)c1` (stereo not drawn) [Compound 19], the “herbicidal activity inhibition ratio (%), Digitaria sanguinalis” value in test [1] was 85%. The “herbicidal activity inhibition ratio (%), Echinochloa crusgalli” value in test [2] came out at 70%. Besides, the “herbicidal activity inhibition ratio (%), Eclipta prostrata” value in test [3] was 85%. For the same molecule, in test [4], the “herbicidal activity inhibition ratio (%), Abutilon theophrasti” value was 75%. Moreover, the “herbicidal activity inhibition ratio (%), Setaria viridis” value in test [5] amounted to 100%. The “herbicidal activity inhibition ratio (%), Amaranthus retroflexus” value in test [6] was determined as 100%.
`Cn1c(=O)n(-c2cccc(Br)c2)c(=O)c2cc(C(=O)C3=C(O)CC(C)(C)CC3=O)ccc21` [Compound 24]: in test [1], the “herbicidal activity inhibition ratio (%), Digitaria sanguinalis” value stood at 60%. In addition, in test [2], the “herbicidal activity inhibition ratio (%), Echinochloa crusgalli” value was found to be 30%. Further, in test [3], the “herbicidal activity inhibition ratio (%), Eclipta prostrata” value stood at 83%. The “herbicidal activity inhibition ratio (%), Abutilon theophrasti” value in test [4] is listed as 93%. The “herbicidal activity inhibition ratio (%), Setaria viridis” value in test [5] is listed as 10%. Besides, the “herbicidal activity inhibition ratio (%), Amaranthus retroflexus” value in test [6] was 80%.
`Cn1c(=O)n(-c2c(Cl)cccc2Cl)c(=O)c2cc(C(=O)C3=C(O)CC(C)(C)CC3=O)ccc21` [Compound 94]: in test [1], the “herbicidal activity inhibition ratio (%), Digitaria sanguinalis” value stood at 88%. For the same molecule, the “herbicidal activity inhibition ratio (%), Echinochloa crusgalli” value in test [2] was determined as 93%. For the same molecule, the “herbicidal activity inhibition ratio (%), Eclipta prostrata” value in test [3] is reported as 98%. The “herbicidal activity inhibition ratio (%), Abutilon theophrasti” value in test [4] is 95%. In addition, the “herbicidal activity inhibition ratio (%), Setaria viridis” value in test [5] worked out at 95%. Moreover, in test [6], the “herbicidal activity inhibition ratio (%), Amaranthus retroflexus” value is listed as 95%.
For `Cn1c(=O)n(-c2ccc(F)cc2)c(=O)c2cc(C(=O)C3=C(O)CC(C)(C)CC3=O)ccc21` [Compound 22], the “herbicidal activity inhibition ratio (%), Digitaria sanguinalis” value in test [1] was 95%. Also, in test [2], the “herbicidal activity inhibition ratio (%), Echinochloa crusgalli” value is 80%. The “herbicidal activity inhibition ratio (%), Eclipta prostrata” value in test [3] was 90%. Further, the “herbicidal activity inhibition ratio (%), Abutilon theophrasti” value in test [4] was found to be 100%. Also, in test [5], the “herbicidal activity inhibition ratio (%), Setaria viridis” value stood at 95%. The “herbicidal activity inhibition ratio (%), Amaranthus retroflexus” value in test [6] turned out to be 100%.
Turning to `Cc1ccccc1-n1c(=O)c2cc(C(=O)C3=C(O)CC(C)(C)CC3=O)ccc2n(Cc2ccccc2)c1=O` [Compound 80], the “herbicidal activity inhibition ratio (%), Digitaria sanguinalis” value in test [1] worked out at 0%. Further, in test [2], the “herbicidal activity inhibition ratio (%), Echinochloa crusgalli” value came out at 0%. Moreover, in test [3], the “herbicidal activity inhibition ratio (%), Eclipta prostrata” value turned out to be 0%. In test [4], the “herbicidal activity inhibition ratio (%), Abutilon theophrasti” value worked out at 0%. In test [5], the “herbicidal activity inhibition ratio (%), Setaria viridis” value was determined as 10%. Further, the “herbicidal activity inhibition ratio (%), Amaranthus retroflexus” value in test [6] was 0%.
For the molecule `Cn1c(=O)n(-c2ccccc2Br)c(=O)c2cc(C(=O)C3=C(O)CC(C)(C)CC3=O)ccc21` [Compound 28], in test [1], the “herbicidal activity inhibition ratio (%), Digitaria sanguinalis” value was determined as 95%. Moreover, the “herbicidal activity inhibition ratio (%), Echinochloa crusgalli” value in test [2] is 85%. Also, the “herbicidal activity inhibition ratio (%), Eclipta prostrata” value in test [3] worked out at 83%. The “herbicidal activity inhibition ratio (%), Abutilon theophrasti” value in test [4] is listed as 100%. Moreover, the “herbicidal activity inhibition ratio (%), Setaria viridis” value in test [5] turned out to be 35%. In addition, in test [6], the “herbicidal activity inhibition ratio (%), Amaranthus retroflexus” value is recorded as 95%.
Consider `Cn1c(=O)n(-c2ccc(Cl)cc2)c(=O)c2cc(C(=O)C3=C(O)CCCC3=O)ccc21` [Compound 1, 3-(4-chlorphenyl)-6-[(2-hydroxy-6-oxo-1-cyclohexenyl)carbonyl]-1-methylquinazoline-2,4(1H,3H)-dione], for which the “herbicidal activity inhibition ratio (%), Digitaria sanguinalis” value in test [1] worked out at 90%. Besides, in test [2], the “herbicidal activity inhibition ratio (%), Echinochloa crusgalli” value was determined as 90%. Further, in test [3], the “herbicidal activity inhibition ratio (%), Eclipta prostrata” value is 85%. Besides, the “herbicidal activity inhibition ratio (%), Abutilon theophrasti” value in test [4] turned out to be 90%. The “herbicidal activity inhibition ratio (%), Setaria viridis” value in test [5] worked out at 100%. Moreover, in test [6], the “herbicidal activity inhibition ratio (%), Amaranthus retroflexus” value was determined as 90%.
Consider `Cc1cccc(Cl)c1-n1c(=O)c2cc(C(=O)C3=C(O)CC(C)(C)CC3=O)ccc2n(C)c1=O` [Compound 96], for which the “herbicidal activity inhibition ratio (%), Digitaria sanguinalis” value in test [1] is on record as 30%. In addition, in test [2], the “herbicidal activity inhibition ratio (%), Echinochloa crusgalli” value is on record as 55%. The “herbicidal activity inhibition ratio (%), Eclipta prostrata” value in test [3] was determined as 83%. For the same molecule, the “herbicidal activity inhibition ratio (%), Abutilon theophrasti” value in test [4] was found to be 95%. In addition, the “herbicidal activity inhibition ratio (%), Setaria viridis” value in test [5] is listed as 95%. In test [6], the “herbicidal activity inhibition ratio (%), Amaranthus retroflexus” value was determined as 100%.
As for `CCCn1c(=O)n(-c2ccccc2C)c(=O)c2cc(C(=O)C3=C(O)CCCC3=O)ccc21` [Compound 71], the “herbicidal activity inhibition ratio (%), Digitaria sanguinalis” value in test [1] came out at 25%. Also, the “herbicidal activity inhibition ratio (%), Echinochloa crusgalli” value in test [2] is on record as 80%. The “herbicidal activity inhibition ratio (%), Eclipta prostrata” value in test [3] amounted to 98%. Also, the “herbicidal activity inhibition ratio (%), Abutilon theophrasti” value in test [4] was determined as 95%. For the same molecule, the “herbicidal activity inhibition ratio (%), Setaria viridis” value in test [5] is 98%. The “herbicidal activity inhibition ratio (%), Amaranthus retroflexus” value in test [6] came out at 85%.
`CCn1c(=O)n(-c2ccccc2C)c(=O)c2cc(C(=O)C3=C(O)CC(C)(C)CC3=O)ccc21` [Compound 69]: the “herbicidal activity inhibition ratio (%), Digitaria sanguinalis” value in test [1] was determined as 30%. Further, the “herbicidal activity inhibition ratio (%), Echinochloa crusgalli” value in test [2] is recorded as 90%. Moreover, the “herbicidal activity inhibition ratio (%), Eclipta prostrata” value in test [3] was determined as 88%. Besides, the “herbicidal activity inhibition ratio (%), Abutilon theophrasti” value in test [4] came out at 100%. Moreover, the “herbicidal activity inhibition ratio (%), Setaria viridis” value in test [5] came to 85%. In addition, the “herbicidal activity inhibition ratio (%), Amaranthus retroflexus” value in test [6] was found to be 95%.
Regarding `Cn1c(=O)n(-c2cc(C(F)(F)F)ccc2Cl)c(=O)c2cc(C(=O)C3=C(O)CC(C)(C)CC3=O)ccc21` [Compound 61], in test [1], the “herbicidal activity inhibition ratio (%), Digitaria sanguinalis” value worked out at 25%. The “herbicidal activity inhibition ratio (%), Echinochloa crusgalli” value in test [2] was determined as 0%. The “herbicidal activity inhibition ratio (%), Eclipta prostrata” value in test [3] amounted to 20%. In test [4], the “herbicidal activity inhibition ratio (%), Abutilon theophrasti” value stood at 65%. Moreover, in test [5], the “herbicidal activity inhibition ratio (%), Setaria viridis” value turned out to be 10%. In addition, the “herbicidal activity inhibition ratio (%), Amaranthus retroflexus” value in test [6] amounted to 0%.
Take `CC1CC(=O)C(C(=O)c2ccc3c(c2)c(=O)n(-c2ccccc2)c(=O)n3C)=C(O)C1` (stereo not drawn) [Compound 42]: the “herbicidal activity inhibition ratio (%), Digitaria sanguinalis” value in test [1] was determined as 93%. The “herbicidal activity inhibition ratio (%), Echinochloa crusgalli” value in test [2] came out at 88%. Further, in test [3], the “herbicidal activity inhibition ratio (%), Eclipta prostrata” value came to 83%. In addition, the “herbicidal activity inhibition ratio (%), Abutilon theophrasti” value in test [4] was 98%. The “herbicidal activity inhibition ratio (%), Setaria viridis” value in test [5] was 60%. Besides, the “herbicidal activity inhibition ratio (%), Amaranthus retroflexus” value in test [6] turned out to be 100%.
For the molecule `Cn1c(=O)n(-c2ccccc2F)c(=O)c2cc(C(=O)C3=C(O)CCCC3=O)ccc21` [Compound 12], the “herbicidal activity inhibition ratio (%), Digitaria sanguinalis” value in test [1] was determined as 80%. Moreover, the “herbicidal activity inhibition ratio (%), Echinochloa crusgalli” value in test [2] is 80%. Also, the “herbicidal activity inhibition ratio (%), Eclipta prostrata” value in test [3] worked out at 80%. Moreover, the “herbicidal activity inhibition ratio (%), Abutilon theophrasti” value in test [4] turned out to be 85%. Besides, the “herbicidal activity inhibition ratio (%), Setaria viridis” value in test [5] came out at 100%. For the same molecule, the “herbicidal activity inhibition ratio (%), Amaranthus retroflexus” value in test [6] was 80%.
As to `Cc1cccc(C)c1-n1c(=O)c2c(C)c(C(=O)C3=C(O)CCCC3=O)ccc2n(C)c1=O` [Compound 93], in test [1], the “herbicidal activity inhibition ratio (%), Digitaria sanguinalis” value came out at 100%. For the same molecule, the “herbicidal activity inhibition ratio (%), Echinochloa crusgalli” value in test [2] is recorded as 100%. Further, the “herbicidal activity inhibition ratio (%), Eclipta prostrata” value in test [3] is listed as 100%. Also, the “herbicidal activity inhibition ratio (%), Abutilon theophrasti” value in test [4] came out at 100%. Moreover, in test [5], the “herbicidal activity inhibition ratio (%), Setaria viridis” value is given as 100%. Besides, in test [6], the “herbicidal activity inhibition ratio (%), Amaranthus retroflexus” value was found to be 100%.
